# ChEMBL document CHEMBL1921691, “Synthesis and growth regulatory activity of a prototype member of a new family of aminothiol radioprotectors” (Bioorg Med Chem Lett, 2011)
# The source made the active and inactive calls. The calls are words filed in the database; no cut-off is given here.
# Test system: Rattus norvegicus
# Assay: Protection against 17.33 Gy radiation induced-dermatitis in rat compound administered topically 4 times in 2 hrs prior irradiation measured after 13 days
# Format: functional, organism-based
# Conditions: not given
row,Compound,Activity
1,CNCC(CS)CNC,Active

# Organism: Homo sapiens
# Assay: Antiproliferative activity against log phase culture of human fibroblasts assessed as growth inhibition after 4 days
# Format: functional
# Conditions: Fibroblast
row,Compound,growth inhibition (GI)
1,CNCC(CS)CNC,Active
2,CCNCCCCNCCCCNC/C=C(/CS)CNCCCCNCCCCNCC,Active
3,CCNCCCCNC/C=C(/CS)CNCCCCNCC,Active
4,CCNCCCCNCCCCNCCCCNC/C=C(/CS)CNCCCCNCCCCNCCCCNCC,Active
5,CCNCCCCNCCCCNCCCCNCCCCNC/C=C(/CS)CNCCCCNCCCCNCCCCNCCCCNCC,Active
